Broadly, the IC50 is the concentration at which inhibition is half-maximal. Higher therefore signals a need for much substance.

The subject of assay [1] is P388. Briefly: Compound was tested for cytotoxic activity against P-388D1 mouse lymphoma (ATCC:CCL-46). The class given is functional, cell-based.
In assay [2] the test system is A549. Put plainly: Compound was tested for cytotoxic activity against A-549 human lung carcinoma (ATCC:CCL-185). The class given is functional, cell-based.
Assay [3] concerns P388. Briefly: Compound was tested for cytotoxic activity against P-388D1 mouse lymphoma (ATCC: CCL-46). The class given is functional, cell-based.
The subject of assay [4] is SK-MEL-28. Put plainly: Compound was tested for cytotoxic activity against SK-MEL-28 human melanoma (ATCC:HTB-72). It counts as functional, cell-based.
Assay [5] relates to HT-29. Briefly: (§1) Compound was tested for cytotoxic activity against […] human colon carcinoma (ATCC:HTB-38). The class given is functional, cell-based.
Assay [6] is filed under the species Homo sapiens. The assay is described as §1. It counts as functional.

In brackets after ≈: the same amount, converted by molar mass. Several values for one entry are separate records, joined by “and”; a condition that tells them apart may be missing. Identical values can stand only once.

As to `COc1c(O)cc2c(c1C(=O)O)C(=O)C=C1C2(C)CC[C@@]2(C)C3C[C@@H](C)C(=O)[C@@H](O)[C@]3(C)CC[C@]12C` (single isomer, unassigned), the 50% inhibitory concentration (IC50) in assay [1] was 10 µg/mL (≈ 20.1 µM); in assay [2] it was 10 µg/mL and 20.7 µM; in assay [3], 20.7 µM; in assay [4], 10 µg/mL and 20.7 µM; in assay [5], 10 µg/mL and 20.7 µM.

As to `COC(=O)[C@]1(C)CC[C@]2(C)CC[C@]3(C)C4CC(=O)c5c(cc(OC(C)=O)c(OC(C)=O)c5C=O)[C@]4(C)CC[C@@]3(C)C2C1` (stereo partly specified), the IC50 in assay [1] is 0.25 µg/mL (≈ 0.431 µM); in assay [2] it was 0.25 µg/mL and 400 nM; in assay [3] it was 0.4 µM; in assay [4], 0.25 µg/mL and 400 nM; in assay [5] it was 0.25 µg/mL and 400 nM.

Consider `C[C@@H]1CC2[C@]3(C)CCC4(C)C(=CC(=O)c5c4cc(O)c(O)c5C(=O)O)[C@@]3(C)CC[C@@]2(C)[C@H](O)C1=O` (single isomer, unassigned), for which the IC50 in assay [1] is 2.5 µg/mL (≈ 5.18 µM); in assay [2], 2.5 µg/mL and 5.2 µM; in assay [3], 5.2 µM; in assay [4], 2.5 µg/mL and 5.2 µM; in assay [5], 2.5 µg/mL and 5.2 µM.

Consider `COC(=O)[C@]1(C)CC[C@]2(C)CC[C@]3(C)C4CC(=O)c5c(cc(O)c(O)c5C=O)[C@]4(C)CC[C@@]3(C)C2C1` (stereo partly specified), for which the IC50 in assay [6] is 2 µM; in assay [1], 0.5 µg/mL (≈ 1.01 µM); in assay [2], 0.5 µg/mL and 1 µM; in assay [3] it was 1 µM; in assay [4] it was 0.5 µg/mL and 1 µM; in assay [5], 1 µg/mL (≈ 2.01 µM).

On to `CC1=C(O)C(=O)C=C2C1=CC(O)[C@H]1[C@@]2(C)CC[C@@]2(C)C3C[C@@H](C)C(=O)[C@@H](O)[C@]3(C)CC[C@]12C` (single isomer, unassigned), for which the IC50 in assay [1] is 0.5 µg/mL (≈ 1.1 µM); in assay [2], 1 µg/mL and 2 µM; in assay [3], 1 µM; in assay [4], 1 µg/mL and 2 µM; in assay [5], 1 µg/mL and 2 µM.

Values taken from ChEMBL document CHEMBL1133156, “Macrocarpins A-D, new cytotoxic nor-triterpenes from Maytenus macrocarpa” (Bioorg Med Chem Lett, 2000).
